Reference: the NIST ThermoML archive (doi:10.1021/je600552b)
± gives the expanded uncertainty stated by the source.

Conditions: 101.33 kPa, Liquid, Falling or rolling sphere viscometry

Structure (SMILES) | viscosity (313.15 K) [mPa·s] | viscosity (323.15 K) [mPa·s] | viscosity (333.15 K) [mPa·s] | viscosity (343.15 K) [mPa·s] | viscosity (293.15 K) [mPa·s] | viscosity (303.15 K) [mPa·s] | kinematic viscosity (293.15 K) [m2/s] | kinematic viscosity (303.15 K) [m2/s] | kinematic viscosity (313.15 K) [m2/s] | kinematic viscosity (323.15 K) [m2/s] | kinematic viscosity (333.15 K) [m2/s] | kinematic viscosity (343.15 K) [m2/s]
CCCCCCCCCCCC(=O)OC [methyl dodecanoate] | 2.044 ± 0.07 | 1.643 ± 0.056 | 1.383 ± 0.047 | 1.173 ± 0.04 | 3.096 ± 0.11 | 2.475 ± 0.085 | – | – | – | – | – | –
CC/C=C\C/C=C\C/C=C\CCCCCCCC(=O)O [all-cis-9,12,15-octadecatrienoic acid] | – | – | – | – | – | – | 1.55e-05 ± 7.9e-07 | 1.24e-05 ± 6.3e-07 | 8.91e-06 ± 4.5e-07 | 7.26e-06 ± 3.7e-07 | 5.96e-06 ± 3e-07 | 5.13e-06 ± 2.6e-07
CCCCCCCC/C=C\CCCCCCCC(=O)OC [methyl cis-9-octadecenoate] | 3.939 ± 0.14 | 3.097 ± 0.11 | 2.472 ± 0.085 | 2.054 ± 0.071 | 6.37 ± 0.22 | 4.922 ± 0.17 | – | – | – | – | – | –
CC/C=C\C/C=C\C/C=C\CCCCCCCC(=O)OC [methyl (Z,Z,Z)-9,12,15-octadecatrienoate] | 2.79 ± 0.096 | 2.299 ± 0.079 | 1.862 ± 0.064 | 1.596 ± 0.055 | 4.022 ± 0.14 | 3.301 ± 0.11 | – | – | – | – | – | –
CCCCC/C=C\C/C=C\CCCCCCCC(=O)OC [methyl (Z,Z)-9,12-octadecadienate] | 3.166 ± 0.11 | 2.55 ± 0.088 | 2.078 ± 0.071 | 1.755 ± 0.06 | 4.798 ± 0.17 | 3.822 ± 0.13 | – | – | – | – | – | –

Continued, values first:

viscosity (313.15 K) [mPa·s] | viscosity (323.15 K) [mPa·s] | viscosity (333.15 K) [mPa·s] | viscosity (343.15 K) [mPa·s] | viscosity (293.15 K) [mPa·s] | viscosity (303.15 K) [mPa·s] | kinematic viscosity (293.15 K) [m2/s] | kinematic viscosity (303.15 K) [m2/s] | kinematic viscosity (313.15 K) [m2/s] | kinematic viscosity (323.15 K) [m2/s] | kinematic viscosity (333.15 K) [m2/s] | kinematic viscosity (343.15 K) [m2/s] | Structure (SMILES)
3.764 ± 0.13 | 2.931 ± 0.1 | 2.336 ± 0.08 | 1.946 ± 0.067 | – | – | – | – | – | – | – | – | CCCCCCCCCCCCCCCC(=O)OC [methyl hexadecanoate]
2.841 ± 0.098 | 2.252 ± 0.078 | 1.819 ± 0.063 | 1.521 ± 0.052 | 4.442 ± 0.15 | 3.496 ± 0.12 | – | – | – | – | – | – | CCCCCCCCCCCCCC(=O)OC [methyl tetradecanoate]
– | – | – | – | – | – | 2.37e-05 ± 8.1e-07 | 1.76e-05 ± 6.1e-07 | 1.36e-05 ± 4.6e-07 | 1.07e-05 ± 3.7e-07 | 8.68e-06 ± 3e-07 | 7.18e-06 ± 2.5e-07 | CC/C=C\C/C=C\C/C=C\CCCCCCCC(=O)OCC(COC(=O)CCCCCCC/C=C\C/C=C\C/C=C\CC)OC(=O)CCCCCCC/C=C\C/C=C\C/C=C\CC [trilinolenin]
